# Data published in US6555531B1, “Weight promoting composition, method, and product” (Pherin Pharmaceuticals, Inc., priority 1999, dated 2003).
# “And” between values parts separate entries of the source, which are not always exact repeats. Equal entries are not always repeated. “Also recorded” adds a separate entry of the source.
# What was measured:
# [1] = test system: VNO cells; experiment: In Vitro Study CL002: inward current in VNO cells; format: cell-based, human; settings: for mean peak inward current: 10^−5 M
# Description: In Vitro Study CL002. This study was conducted using VNO cells that had been collected from healthy male and female volunteers. […] In addition, the magnitude of the response was greater in cells from women than in cells from men.
# [2] = test system: VNO; experiment: In Vivo Study CL001: electrovomerogram (EVG), autonomic parameters and EEG after VNO stimulation; design: species or system human; key to performance summary: EDA / performance summary: α-CA / performance summary: EVG: + indicates a moderate increase in activity; ++ indicates a substantial increase in activity; settings: for EVG, difference from the response to placebo: 200 pg vapor pulse to VNO; for mean peak amplitude of the EVG (electrovomerogram) response: single intranasal dose
# Description: In Vivo Study CL001. This study was conducted in healthy male and female volunteers each tested with a single dose of (17β)19-norpregna-1,3,5(10)-trien-3-ol. The mean peak amplitude of the EVG (electrovomerogram) response to intranasal administration of (17β)19-norpregna-1,3,5(10)-trien-3-ol, reported as the magnitude of the difference from the response to placebo, was […] (13.9 mV in women and 5.3 mV in men difference from the response to placebo). […] In addition, the peak amplitude of the response in women was greater than that in men. Methods: For VNO stimulation, a 10^−8 M solution of (17β)19-norpregna-1,3,5(10)-trien-3-ol vomeropherin was prepared in propylene glycol (PG). A vapor pulse (duration: 2 seconds) of the vomeropherin was obtained bubbling clean air through the solution (air flow: 3 mL/min.). This delivered an estimated quantity of 200 pg of (17β)19-norpregna-1,3,5(10)-trien-3-ol to the VNO. The control was a pulse of PG alone in vapor form. Processing and analysis of the results was done off-line. The amplitude or frequency of the different parameters was measured. The mean and standard deviation of the mean were obtain for all parameters 5 minutes after stimulation with control, and (17β)19-norpregna-1,3,5(10)-trien-3-ol. The significance of the results was studied using the paired, two-tailed student t-test, and analysis of variance.
# [3] = test system: gonadotropin secretion; experiment: Study CL003: gonadotropin secretion study in healthy female volunteers; format: in vivo, human
# Description: Study CL003 was designed to investigate possible effects of (17β)19-norpregna-1,3,5(10)-trien-3-ol on gonadotropin secretion in healthy female volunteers. Because gonadotropins typically are secreted in a pulsatile pattern with 4-6 peaks per day, (17β)19-norpregna-1,3,5(10)-trien-3-ol was administered at 10-minute intervals over a 6-hour period. This timing was provided in order to determine whether (17β)19-norpregna-1,3,5(10)-trien-3-ol affected the pattern of pulsatility and/or the magnitude of the gonadotropin release. […] To follow up on these anecdotal reports, the investigators gave the subjects a questionnaire one month after completing their participation in the study to assess this effect of (17β)19-norpregna-1,3,5(10)-trien-3-ol in a systematic fashion.
# [4] = Study CL004: follow-on appetite study; format: in vivo, human; settings: one dose every 10 minutes for 6 hours, interim findings
# Description: Study CL004. Study CL004 was conducted as a follow-on to the surprising appetite results of study CL003, and was designed to provide a more focused investigation of the effects of (17β)19-norpregna-1,3,5(10)-trien-3-ol on appetite. […] Study CL004 was conducted after study CL003 had been completed.
# [5] = Study CL005: food consumption and appetite study; format: in vivo, human; settings: same dosing regimen; not after placebo; preliminary data analysis
# Description: Study CL005. Study CL005 was designed to investigate in detail the effects of (17β)19-norpregna-1,3,5(10)-trien-3-ol -on food consumption in studies CL003 and CL004. The (17β)19-norpregna-1,3,5(10)-trien-3-ol dosing regimen was the same as had been used for the previous studies. Food intake and appetite were examined in this study in great detail. Subjects kept records of their appetite, food intake, etc., over a 3-4 month period.
# [6] = Study CL006: mealtime dosing in metabolic unit, appetite and food intake; format: in vivo, human; settings: some participants, dosing with mealtimes, informal analysis of blinded data
# Description: Study CL006. Study CL006 was designed to provide an evaluation of a more clinically meaningful (17β)19-norpregna-1,3,5(10)-trien-3-ol dosing regimen, as well as to provide a more controlled environment in which to evaluate appetite and food intake effects. In this study, subjects received (17β)19-norpregna-1,3,5(10)-trien-3-ol in association with mealtimes, and they remained in a metabolic unit throughout the study.
# [7] = dosed at 10-minute intervals over 6 hours
smiles,measurement,setting,value
"CC[C@H]1CC[C@H]2[C@@H]3CCc4cc(O)ccc4[C@H]3CC[C@]12C [(17β)19-norpregna-1,3,5(10)-trien-3-ol]",concentration of peak effect (inward current),[1]; VNO cells,10^−5 M
same,concentration at which inward current response was significantly different from the control response,[1]; VNO cells from men and women,≥ 10^−7 M
same,response of VNO cells to application,"[1]; cells from both men and women, magnitude dose dependent",development of an inward current
same,mean peak inward current,[1]; cells from men,55 pA
same,mean peak inward current,[1]; cells from women,96 pA
same,activity in the VNO,[2]; both female and male subjects,active
same,EDA compared with placebo,"[2]; eight female subjects, 200 pg, p<0.05",increased significantly from placebo; also recorded: increased EDA
same,Other autonomic parameters and EMG,[2]; female subjects,remained unchanged
same,performance summary: EDA,[2]; female subjects,+
same,performance summary: EVG,[2]; female subjects,++
same,performance summary: α-CA,[2]; female subjects,++
same,"Respiratory frequency (RF), difference from placebo","[2]; female subjects, 200 pg",+3.0 cycles/min
same,"alpha-cortical activity (α-CA), difference from placebo","[2]; female subjects, 200 pg",+35.8 μV^2/Hz
same,"beta-cortical activity (β-CA), difference from placebo","[2]; female subjects, 200 pg",−2.2 μV^2/Hz
same,"body temperature (BT), difference from placebo","[2]; female subjects, 200 pg",+0.2 °C
same,"cardiac frequency (CF), difference from placebo","[2]; female subjects, 200 pg",0 beats/min
same,"electromyogram (EMG), difference from placebo","[2]; female subjects, 200 pg",0 Hz
same,"EVG, difference from the response to placebo",[2]; female subjects,13.9 mV and 13.8 mV
same,"electrodermal activity (EDA), difference from placebo","[2]; female subjects, 200 pg, 5 minutes after stimulation",+109.4 μS
same,Alpha rhythm recorded from T4A2 compared with placebo,"[2]; female subjects, p<0.05",increased significantly from placebo
same,beta rhythm in CA2 compared with placebo,"[2]; female subjects, p<0.05",decreased beta rhythm
same,performance summary: EDA,[2]; male subjects,+
same,performance summary: EVG,[2]; male subjects,+
same,Body temperature compared with placebo,"[2]; male subjects, p<0.05",decreased
same,alpha rhythm compared with placebo,"[2]; male subjects, p<0.05",decreased
same,Other biological parameters,[2]; males,did not change significantly
same,"EVG, difference from the response to placebo",[2]; men,5.3 mV
same,EDA compared with placebo,"[2]; men, p<0.05",increased EDA
same,EVG response compared with placebo,"[2]; men, p<0.05",significantly greater than that to placebo; also recorded: significantly different from placebo
same,mean peak amplitude of the EVG (electrovomerogram) response,[2]; men,30 mV
same,"BT, difference from placebo",[2]; six male subjects,−1.2
same,"CF, difference from placebo",[2]; six male subjects,0
same,"EDA, difference from placebo",[2]; six male subjects,+79.1
same,"EMG, difference from placebo",[2]; six male subjects,0
same,"EVG, difference from placebo",[2]; six male subjects,+5.3
same,"RF, difference from placebo",[2]; six male subjects,−1.7
same,"α-CA, difference from placebo",[2]; six male subjects,−11.7
same,EVG response compared with placebo,[2]; women,significantly greater than that to placebo; also recorded: robust mean EVG; also recorded: large EVG
same,mean peak amplitude of the EVG (electrovomerogram) response,[2]; women,50 mV
same,appetite (questionnaire one month after study),[3]; all subjects,large increase in appetite
same,gonadotropin secretion,[3]; [7],No consistent changes
same,menstrual cycle pattern or ovulation,[3]; [7],no changes
same,appetite,"[4]; all subjects, not after placebo",increase in appetite for at least one week
same,body weight,[4],persistent increase in body weight
same,appetite,[5],perceived increase in appetite for at least one week
same,body weight,[6],treatment-related increase
same,food intake,[6],treatment-related increase
